This assay deals with T1, AXL (human catalytic domain) (Homo sapiens, UniProt P30530).
T1 construct: purchased Upstate Ltd. 14-512
T1 sequence (P30530 473-894): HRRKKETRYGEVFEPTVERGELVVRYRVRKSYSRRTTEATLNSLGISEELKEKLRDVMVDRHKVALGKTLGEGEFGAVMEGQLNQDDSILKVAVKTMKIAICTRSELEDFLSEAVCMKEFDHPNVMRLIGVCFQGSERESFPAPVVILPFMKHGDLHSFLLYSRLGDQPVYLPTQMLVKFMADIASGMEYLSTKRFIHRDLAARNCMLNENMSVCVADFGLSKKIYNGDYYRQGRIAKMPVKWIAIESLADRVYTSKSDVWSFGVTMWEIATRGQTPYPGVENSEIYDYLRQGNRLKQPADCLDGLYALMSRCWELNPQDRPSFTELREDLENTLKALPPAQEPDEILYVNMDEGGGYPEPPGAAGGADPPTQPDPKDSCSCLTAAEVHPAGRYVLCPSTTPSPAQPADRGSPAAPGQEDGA
As to the kind of experiment: AXL (human catalytic domain) Enzyme Activity Assay (IMAP fluorescence polarisation). The assay is classed as biochemical. The note with it: further data set (WW-001 through WW-169, XX-001 through XX-469, YY-001 through YY-016, ZZ-001 through ZZ-003); 150 μM ATP. In outline:
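IMAP FP readout (Ex485/Em535, after overnight binding) measured inhibition of the human AXL catalytic domain (aa473-894, 15 nM final) acting on 100 nM 5FAM-CSK-tide at 150 μM ATP, equal to KM. Reactions ran 60 min at room temperature in pH 7.0 HEPES buffer; IC50 from 10-point curves.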

The results in this text go back to US8431596B2 (Cancer Research Technology Limited, priority 2007, dated 2013).

pIC50: −log10 of the molar value.

In the case of `Fc1cc(Nc2nc3cccc(-c4ccc5c(c4)OCCO5)n3n2)ccc1OCCN1CCCC1` [XX-133], the pIC50 is no less than 7.00.

In turn, `Fc1ccc(Nc2nc3cccc(-c4ccc5c(c4)OCCO5)n3n2)cc1OCCN1CCCC1` [XX-134] showed a pIC50 of 6.00 to 7.00.

As to `CC(C(=O)Nc1ccc(Nc2nc3cccc(-c4ccc5c(c4)OCCO5)n3n2)cc1)N1CCCC1` (stereo not drawn) [XX-135], the pIC50 is 6.00 to 7.00. Compound `CC(C(=O)Nc1cccc(Nc2nc3cccc(-c4ccc5c(c4)OCCO5)n3n2)c1)N1CCCC1` (stereo not drawn) [XX-136] gave a pIC50 of no less than 7.00.

As for `CN(C)CCCc1ccc(Nc2nc3cccc(-c4ccc5c(c4)OCCO5)n3n2)cc1` [XX-137], the pIC50 is 6.00 to 7.00.

As to `C[C@@H](N)COc1ccc(Nc2nc3cccc(-c4ccc5c(c4)OCCO5)n3n2)cc1` [XX-138], the pIC50 was 6.00 to 7.00.

As to `CC(CNc1ccc(Nc2nc3cccc(-c4ccc5c(c4)OCCO5)n3n2)cc1)N1CCCC1` (stereo not drawn) [XX-139], the pIC50 was no less than 7.00. As for `CC(CNc1cccc(Nc2nc3cccc(-c4ccc5c(c4)OCCO5)n3n2)c1)N1CCCC1` (stereo not drawn) [XX-140], the figure is 6.00 to 7.00.

For the compound `C[C@@H](CN)Oc1ccc(Nc2nc3cccc(-c4ccc5c(c4)OCCO5)n3n2)cc1` [XX-141], the pIC50 was 6.00 to 7.00. As for `C[C@H](CN)Oc1ccc(Nc2nc3cccc(-c4ccc5c(c4)OCCO5)n3n2)cc1` [XX-142], the figure is 6.00 to 7.00. Then `C[C@H](N)COc1ccc(Nc2nc3cccc(-c4ccc5c(c4)OCCO5)n3n2)cc1` [XX-143, [4-((S)-2-Amino-propoxy)-phenyl]-[5-(2,3-dihydro-benzo[1,4]dioxin-6-yl)-[1,2,4]triazolo[1,5-a]pyridin-2-yl]-amine], with 6.00 to 7.00. Then `NCCNS(=O)(=O)c1ccc(Nc2nc3cccc(-c4ccc5c(c4)OCCO5)n3n2)cc1` [XX-144], with 6.00 to 7.00; and `O=S(=O)(c1ccc(Nc2nc3cccc(-c4ccc5c(c4)OCCO5)n3n2)cc1)N1CCNCC1` [XX-145], with 6.00 to 7.00; and `c1cc(-c2ccc(OCC3CCCO3)cc2)n2nc(Nc3ccc(OCCN4CCCC4)cc3)nc2c1` (stereo not drawn) [XX-146], with 6.00 to 7.00.

The compound `CCN(CC)CCOc1cccc(Nc2nc3cccc(-c4ccc(N(C)C)c(C)c4)n3n2)c1` [XX-147] gave a pIC50 of 6.00 to 7.00.

On to `C#CCOc1ccc(-c2cccc3nc(Nc4ccc(OCCN5CCCC5)cc4)nn23)cc1` [XX-148], for which the pIC50 was 6.00 to 7.00. Then `Cn1cc(-c2ccc(-c3cccc4nc(Nc5ccc(OCCN6CCCC6)cc5)nn34)cc2)cn1` [XX-149], with 6.00 to 7.00; and `COc1cccc(-c2cccc3nc(Nc4ccc(OCCN5CCCC5)cc4)nn23)c1` [XX-150], with 5.00 to 6.00; and `Oc1ccc(-c2cccc3nc(Nc4ccc(OCCN5CCCC5)cc4)nn23)cc1` [XX-151], with 6.00 to 7.00.

With `c1cc(NC2CCCC2)n2nc(Nc3ccc(OCCN4CCCC4)cc3)nc2c1` [XX-152, N*5*-Cyclopentyl-N*2*-[4-(2-pyrrolidin-1-yl-ethoxy)-phenyl]-[1,2,4]triazolo[1,5-a]pyridine-2,5-diamine], the pIC50 is 5.00 to 6.00.

With `CN(C(=O)CN1CCCC1)c1ccc(Nc2nc3cccc(-c4ccc5c(c4)OCCO5)n3n2)cc1` [XX-153], the pIC50 was no less than 7.00. Regarding `CN(CCN1CCCC1)c1ccc(Nc2nc3cccc(-c4ccc5c(c4)OCCO5)n3n2)cc1` [XX-154], the pIC50 was no less than 7.00. `C[C@H](CN(C)C)Oc1ccc(Nc2nc3cccc(-c4ccc5c(c4)OCCO5)n3n2)cc1` [XX-155]: the pIC50 is 6.00 to 7.00. As for `CC(C)(C)OC(=O)Nc1cccc(-c2cccc3nc(Nc4ccc(OCCN5CCCC5)cc4)nn23)c1` [XX-156], the figure is 5.00 to 6.00; as for `F[C@H]1CCN(CCOc2ccc(Nc3nc4cccc(-c5ccc6c(c5)OCCO6)n4n3)cc2)C1` [XX-157], 6.00 to 7.00. Then `FC1(F)CCN(CCOc2ccc(Nc3nc4cccc(-c5ccc6c(c5)OCCO6)n4n3)cc2)C1` [XX-158], with 5.00 to 6.00; and `c1ccc(-c2cccc3nc(Nc4ccc(OCCN5CCCC5)cc4)nn23)cc1` [XX-159], with 6.00 to 7.00; and `O=C(CSc1ccc(Nc2nc3cccc(-c4ccc5c(c4)OCCO5)n3n2)cc1)N1CCCC1` [XX-160], with 5.00 to 6.00. Then `CC(Sc1ccc(Nc2nc3cccc(-c4ccc5c(c4)OCCO5)n3n2)cc1)C(N)=O` (stereo not drawn) [XX-161], with 6.00 to 7.00; and `CCN(CC)CCOc1ccc(Nc2nc3cccc(-c4ccc5c(c4)OCCO5)n3n2)cn1` [XX-162], with no less than 7.00. As to `CCN(CC)CCOc1cc(Nc2nc3cccc(-c4ccc5c(c4)OCCO5)n3n2)ccn1` [XX-163], the pIC50 is no less than 7.00. `c1ccc(-c2cccc(-c3cccc4nc(Nc5ccc(OCCN6CCCC6)cc5)nn34)c2)cc1` [XX-164, (5-Biphenyl-3-yl-[1,2,4]triazolo[1,5-a]pyridin-2-yl)-[4-(2-pyrrolidin-1-yl-ethoxy)-phenyl]-amine]: the pIC50 was 6.00 to 7.00.

For `c1cc(-c2ccoc2)cc(-c2cccc3nc(Nc4ccc(OCCN5CCCC5)cc4)nn23)c1` [XX-165], the pIC50 is 6.00 to 7.00. On to `c1cc(-c2ccsc2)cc(-c2cccc3nc(Nc4ccc(OCCN5CCCC5)cc4)nn23)c1` [XX-166], for which the pIC50 was 6.00 to 7.00. As for `c1cc(-c2cn[nH]c2)cc(-c2cccc3nc(Nc4ccc(OCCN5CCCC5)cc4)nn23)c1` [XX-167], the figure is no less than 7.00; as for `c1cc(-c2ccco2)cc(-c2cccc3nc(Nc4ccc(OCCN5CCCC5)cc4)nn23)c1` [XX-168], 6.00 to 7.00; as for `Cn1nccc1-c1cccc(-c2cccc3nc(Nc4ccc(OCCN5CCCC5)cc4)nn23)c1` [XX-169], 6.00 to 7.00.

Turning to `Cc1nn(C)c(C)c1-c1cccc(-c2cccc3nc(Nc4ccc(OCCN5CCCC5)cc4)nn23)c1` [XX-170], the pIC50 was 6.00 to 7.00. As for `Cn1cc(-c2cccc(-c3cccc4nc(Nc5ccc(OCCN6CCCC6)cc5)nn34)c2)cn1` [XX-171], the figure is 6.00 to 7.00; as for `CCn1cc(-c2cccc(-c3cccc4nc(Nc5ccc(OCCN6CCCC6)cc5)nn34)c2)cn1` [XX-172], 6.00 to 7.00; as for `CCN(CC)CCNS(=O)(=O)c1ccc(Nc2nc3cccc(-c4ccc5c(c4)OCCO5)n3n2)cc1` [XX-173], 6.00 to 7.00. Then `O=C(Nc1ccccc1)Nc1cccc(-c2cccc3nc(Nc4ccc(OCCN5CCCC5)cc4)nn23)c1` [XX-174, 1-Phenyl-3-(3-{2-[4-(2-pyrrolidin-1-yl-ethoxy)-phenylamino]-[1,2,4]triazolo[1,5-a]pyridin-5-yl}-phenyl)-urea], with 6.00 to 7.00. Then `c1cc(OCC2CCCO2)cc(-c2cccc3nc(Nc4ccc(OCCN5CCCC5)cc4)nn23)c1` (stereo not drawn) [XX-175, [4-(2-Pyrrolidin-1-yl-ethoxy)-phenyl]-{5-[3-(tetrahydro-furan-2-ylmethoxy)-phenyl]-[1,2,4]triazolo[1,5-a]pyridin-2-yl}-amine], with 6.00 to 7.00; and `O=C(Nc1cccc(Cl)c1)Nc1cccc(-c2cccc3nc(Nc4ccc(OCCN5CCCC5)cc4)nn23)c1` [XX-176], with 6.00 to 7.00; and `O=C(Nc1cccc(-c2cccc3nc(Nc4ccc(OCCN5CCCC5)cc4)nn23)c1)c1cccc(Cl)c1` [XX-177], with 6.00 to 7.00. Take `O=C(Nc1cccc(-c2cccc3nc(Nc4ccc(OCCN5CCCC5)cc4)nn23)c1)C1CC1` [XX-178]: the pIC50 was 6.00 to 7.00. `O=C(Nc1cccc(-c2cccc3nc(Nc4ccc(OCCN5CCCC5)cc4)nn23)c1)c1ccccc1` [XX-179] had a pIC50 of 6.00 to 7.00.

Compound `O=C(Nc1cccc(-c2cccc3nc(Nc4ccc(OCCN5CCCC5)cc4)nn23)c1)c1cccnc1` [XX-180] gave a pIC50 of 6.00 to 7.00. Consider `O=C(Nc1cccc(-c2cccc3nc(Nc4ccc(OCCN5CCCC5)cc4)nn23)c1)c1ccco1` [XX-181], for which the negative logarithm of the IC50 (pIC50) is 6.00 to 7.00. Then `O=C(Nc1cccc(-c2cccc3nc(Nc4ccc(OCCN5CCCC5)cc4)nn23)c1)c1ccc2nonc2c1` [XX-182], with 6.00 to 7.00; and `NC(=O)c1cccc(-c2cccc3nc(Nc4ccc(OCCN5CCCC5)cc4)nn23)c1` [XX-183], with 5.00 to 6.00. Compound `Nc1ccc(-c2cccc3nc(Nc4ccc(OCCN5CCCC5)cc4)nn23)cc1` [XX-184] had a pIC50 of 6.00 to 7.00.

In the case of `c1cc(-c2ccc(-c3ccoc3)cc2)n2nc(Nc3ccc(OCCN4CCCC4)cc3)nc2c1` [XX-185], the pIC50 was 6.00 to 7.00. As for `c1cc(-c2ccc(-c3ccsc3)cc2)n2nc(Nc3ccc(OCCN4CCCC4)cc3)nc2c1` [XX-186], the figure is 6.00 to 7.00; as for `c1cc(-c2ccc(-c3cn[nH]c3)cc2)n2nc(Nc3ccc(OCCN4CCCC4)cc3)nc2c1` [XX-187], 6.00 to 7.00. Compound `c1coc(-c2ccc(-c3cccc4nc(Nc5ccc(OCCN6CCCC6)cc5)nn34)cc2)c1` [XX-188] had a pIC50 of 6.00 to 7.00. Then `Cn1nccc1-c1ccc(-c2cccc3nc(Nc4ccc(OCCN5CCCC5)cc4)nn23)cc1` [XX-189], with 6.00 to 7.00; and `Cc1noc(C)c1-c1ccc(-c2cccc3nc(Nc4ccc(OCCN5CCCC5)cc4)nn23)cc1` [XX-190], with 6.00 to 7.00; and `CCn1cc(-c2ccc(-c3cccc4nc(Nc5ccc(OCCN6CCCC6)cc5)nn34)cc2)cn1` [XX-191], with 6.00 to 7.00.

As to `O=C(Nc1cccc(-c2cccc3nc(Nc4ccc(OCCN5CCCC5)cc4)nn23)c1)c1ccno1` [XX-192], the pIC50 was 6.00 to 7.00.

As a reminder, the pIC50 is −log10 of the IC50, conventionally taken in molar units. A higher pIC50 goes with a low IC50.
